We go through six compounds from patent US6277847A, “Herbicidal isoindolinonyl-and 3,4-dihydroisoquinolonyl-substituted heterocycles” (FMC Corporation, priority 2000, dated 2001).

What all share (format): in vivo
For assay [1], the system named is soybean (Glycine max -- var. Winchester). Description: pre-emergence herbicidal activity, soybean. The conditions noted are these: 1 kg/Ha, about fourteen days, read-out: pre-emergence herbicidal activity (% control) SOY. The procedure, abridged:
(§1)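 Seeds sown in soil flats and sprayed pre-emergence with a water/acetone solution of test compound at 1 kg/Ha; untreated controls kept alongside. Phytotoxicity scored after about fourteen days as percent control, 0 being no effect and 100 complete control.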

Assay [2] deals with wheat (Triticum aestivum var. Lew). Put plainly: pre-emergence herbicidal activity, wheat. The note with it: 1 kg/Ha, about fourteen days, read-out: pre-emergence herbicidal activity (% control) WHT. In a few lines: as §1
Assay [3] concerns field corn (Zea mays var. Pioneer 3732). Put plainly: pre-emergence herbicidal activity, corn. The note with it: 1 kg/Ha, about fourteen days, read-out: pre-emergence herbicidal activity (% control) CRN. The procedure, abridged:
as §1

The subject of assay [4] is velvetleaf (Abutilon theophrasti). Put plainly: pre-emergence herbicidal activity, velvetleaf. The note with it: 1 kg/Ha, about fourteen days, read-out: pre-emergence herbicidal activity (% control) ABUTH. In a few lines: as §1
Assay [5] concerns morningglory (Ipomea lacunosa or Ipomea hederacea). Put plainly: pre-emergence herbicidal activity, morningglory. The note with it: Ipomoea, 1 kg/Ha, about fourteen days, read-out: pre-emergence herbicidal activity (% control) IPOSS. The procedure, abridged:
as §1

Assay [6] concerns common chickweed (Stellaria media). Description: pre-emergence herbicidal activity, chickweed. The note with it: 1 kg/Ha, about fourteen days, read-out: pre-emergence herbicidal activity (% control) STEME. In a few lines:
as §1

Assay [7] relates to common cocklebur (Xanthium strumarium L.). Put plainly: pre-emergence herbicidal activity, cocklebur. The note with it: 1 kg/Ha, about fourteen days, read-out: pre-emergence herbicidal activity (% control) XANPE. In a few lines: as §1
Assay [8] relates to blackgrass (Aloepecurus myosuroides). Description: pre-emergence herbicidal activity, blackgrass. The note with it: Alopecurus myosuroides, 1 kg/Ha, about fourteen days, read-out: pre-emergence herbicidal activity (% control) ALOMY. In a few lines:
as §1

Assay [9] has as its system green foxtail (Setaria viridis). Put plainly: pre-emergence herbicidal activity, green foxtail. The conditions noted are these: 1 kg/Ha, about fourteen days, read-out: pre-emergence herbicidal activity (% control) SETVI. The procedure, abridged: as §1
Assay [10] relates to soybean (Glycine max -- var. Winchester). Put plainly: post-emergence herbicidal activity, soybean. The note with it: 1 Kg/Ha, about fourteen days, read-out: post-emergence herbicidal activity (% control) SOY. The procedure, abridged: (§2)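 Seedlings were grown in soil flats to a suitable stage, then sprayed with test compound in water/acetone at 1 Kg/Ha. Treated plants were kept alongside untreated controls for about fourteen days and then scored for phytotoxicity as percent control, 0 being no effect and 100 complete control.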

Assay [11] has as its system wheat (Triticum aestivum var. Lew). Put plainly: post-emergence herbicidal activity, wheat. The conditions noted are these: 1 Kg/Ha, about fourteen days, read-out: post-emergence herbicidal activity (% control) WHT. The procedure, abridged: as §2
Assay [12] has as its system field corn (Zea mays var. Pioneer 3732). Put plainly: post-emergence herbicidal activity, corn. The conditions noted are these: 1 Kg/Ha, about fourteen days, read-out: post-emergence herbicidal activity (% control) CRN. In a few lines:
as §2

Assay [13] deals with velvetleaf (Abutilon theophrasti). Description: post-emergence herbicidal activity, velvetleaf. The conditions noted are these: 1 Kg/Ha, about fourteen days, read-out: post-emergence herbicidal activity (% control) ABUTH. The procedure, abridged: as §2
Assay [14] deals with morningglory (Ipomea lacunosa or Ipomea hederacea). Put plainly: post-emergence herbicidal activity, morningglory. The conditions noted are these: Ipomoea, 1 Kg/Ha, about fourteen days, read-out: post-emergence herbicidal activity (% control) IPOSS. The procedure, abridged: as §2
Assay [15] concerns common chickweed (Stellaria media). Description: post-emergence herbicidal activity, chickweed. The conditions noted are these: 1 Kg/Ha, about fourteen days, read-out: post-emergence herbicidal activity (% control) STEME. The procedure, abridged: as §2
For assay [16], the system named is common cocklebur (Xanthium strumarium L.). Put plainly: post-emergence herbicidal activity, cocklebur. The conditions noted are these: 1 Kg/Ha, about fourteen days, read-out: post-emergence herbicidal activity (% control) XANPE. The procedure, abridged: as §2
For assay [17], the system named is blackgrass (Aloepecurus myosuroides). Put plainly: post-emergence herbicidal activity, blackgrass. The note with it: Alopecurus myosuroides, 1 Kg/Ha, about fourteen days, read-out: post-emergence herbicidal activity (% control) ALOMY. The protocol:
This example sets forth the methods of herbicidal testing conducted on the specific compounds set forth below. Specifically, the compounds referenced below were tested for pre- and post-emergence herbicidal activity using a variety of crops and weeds. The test plants include, but are not limited to, soybean (Glycine max -- var. Winchester), field corn (Zea mays var. Pioneer 3732), wheat (Triticum aestivum var. Lew), morningglory (Ipomea lacunosa or Ipomea hederacea), velvetleaf (Abutilon theophrasti), green foxtail (Setaria viridis), Johnsongrass (Sorghum halepense), blackgrass (Aloepecurus myosuroides), common chickweed (Stellaria media), and common cocklebur (Xanthium strumarium L.).
In the post-emergence test, seeds of the plant species named above were planted in flats containing the appropriate soil mixture where they were maintained to allow the seeds to germinate. When the plants in these flats reached the proper stage of growth, flats for the pre-emergence tests were planted in a like manner. The flats containing the post-emergence and pre-emergence test plant species were then sprayed with an appropriately concentrated water/acetone solution of test compound. Once treated the flats were maintained, along with untreated controls, for about fourteen days. All treated plants were then examined for phytotoxicity, which was expressed as percent control where 0 is no effect and 100 is complete control. Effective rates of application for the compounds of the present invention range from 0.001 to 3 kg/ha, more likely from […] to 1 Kg/ha.
Herbicidal activity data at selected application rates are in Tables 4 and 5. The test compounds are identified by numbers correspond to those in Table 1.
SOY is soybean, WHT is wheat, CRN is corn, ABUTH is velvetleaf, IPOSS is
morningglory, STEME is chickweed, XANPE is cocklebur, ALOMY is blackgrass,
Rate of application of test compound is 1 Kg/Ha. The definitions as shown under Table 4 apply to Table 5.

Assay [18] relates to green foxtail (Setaria viridis). Description: post-emergence herbicidal activity, green foxtail. The conditions noted are these: 1 Kg/Ha, about fourteen days, read-out: post-emergence herbicidal activity (% control) SETVI. The procedure, abridged: as §2

Regarding `Cn1c(C(F)(F)F)cc(=O)n(-c2ccc(Cl)c3c2CN(C2CCCC2)C3=O)c1=O` [Compound 76], the activity at 1000 g/ha in assay [1] was 100%; in assay [2] it was 80%; in assay [3], 95%; in [4] it was 100%; in [5], 100%; in [6], 100%. For the same compound, the activity at 1000 g/ha was determined as 100% in [7]; 90% in [8]; 100% in [9]; 95% in assay [10]; 100% in assay [11]; 100% in assay [12]. For the same compound, the activity at 1000 g/ha in assay [13], in [14], in [15], in assay [16], in [17] and in assay [18] was 100% each time.
Regarding `Cn1c(C(F)(F)F)cc(=O)n(-c2ccc(Cl)c3c2CN(C2CCCCC2)C3=O)c1=O` [Compound 77], the activity at 1000 g/ha in [1] was 100%; in assay [2], 80%; in assay [3], 90%; in [4], 100%; in assay [5] it was 100%; in assay [6], 100%. Moreover, the activity at 1000 g/ha is 100% in assay [7]; 95% in [8]; 100% in [9]; 95% in [10]; 80% in [11]; 100% in assay [12]. Moreover, the activity at 1000 g/ha in assay [13], in assay [14], in assay [15], in [16], in [17] and in assay [18] was 100% each time.
For the compound `Cn1c(C(F)(F)F)cc(=O)n(-c2ccc(Cl)c3c2CN(CCF)C3=O)c1=O` [Compound 78], the activity at 1000 g/ha in [1], in [2], in assay [3], in assay [4], in assay [5] and in [6] was 100% in each case. The activity at 1000 g/ha in assay [7], in assay [8], in assay [9], in assay [10], in assay [11] and in assay [12] was 100% each time. Moreover, the activity at 1000 g/ha in assay [13], in assay [14], in assay [15], in assay [16], in [17] and in [18] was 100% each time.
On to `C=CCn1c(C(F)(F)F)cc(=O)n(-c2ccc(Cl)c3c2CN(C(C)C)C3=O)c1=O` [Compound 80], for which the activity at 1000 g/ha in assay [1] worked out at 70%; in assay [2] it was 80%; in assay [3], 70%; in [4], 100%; in [5], 80%; in assay [6], 100%. Further, the activity at 1000 g/ha in assay [7] came out at 40%; in [8], 80%; in assay [9], 95%; in [10], 85%; in assay [11], 50%; in assay [12], 75%. The activity at 1000 g/ha in assay [13] was 95%; in assay [14], 30%; in assay [15], 100%; in assay [16] it was 40%; in assay [17], 65%; in assay [18], 80%.
In the case of `CC(C)N1Cc2c(-n3c(=O)cc(C(F)(F)F)n(C)c3=O)ccc(Br)c2C1=O` [Compound 81], the activity at 1000 g/ha in assay [1], in [2], in assay [3], in assay [4], in assay [5] and in assay [6] was 100% in each case. For the same compound, the activity at 1000 g/ha in assay [7], in assay [8], in [9], in assay [10], in assay [11] and in [12] was 100% in each case. Further, the activity at 1000 g/ha in [13], in [14], in [15], in [16], in assay [17] and in [18] was 100% throughout.
Consider `CC(C)N1Cc2c(c(Cl)cc(Cl)c2N2C(=O)C3=C(CCCC3)C2=O)C1=O` [Compound 82, 1-[5,7-dichloro-2-(1-methylethyl)isoindolin-1-on-4-yl]-3,4,5,6-tetrahydrophthalimide], for which the activity at 1000 g/ha in assay [1] came to 70%; in [2], 60%; in assay [3] it was 80%; in [4], 100%; in assay [5], 100%; in assay [6], 100%. Besides, the activity at 1000 g/ha in assay [7] stood at 95%; in assay [8] it was 70%; in [9] it was 100%; in assay [10], 60%; in [11], 40%; in [12], 65%. Moreover, the activity at 1000 g/ha in assay [13] is 100%; in [14], 95%; in assay [15], 85%; in assay [16], 100%; in [17] it was 100%; in [18], 100%.
